Laboratory results reported in PMC11541572, “Nucleotidyltransferase toxin MenT extends aminoacyl acceptor ends of serine tRNAs to control Mycobacterium tuberculosis growth” (Nature Communications, 2024).

Key:
PcnA = PcnA (Mycobacterium tuberculosis, UniProt L7N672)
MenT1 = molecular target: T1, MenT1 (Mycobacterium tuberculosis, UniProt L7N686)
T1 construct: gene Rv0078A

MenT3 = molecular target: T2, MenT3 (Mycobacterium tuberculosis, UniProt P96356)
T2 construct: gene Rv1045
T2 sequence (P96356 1-293): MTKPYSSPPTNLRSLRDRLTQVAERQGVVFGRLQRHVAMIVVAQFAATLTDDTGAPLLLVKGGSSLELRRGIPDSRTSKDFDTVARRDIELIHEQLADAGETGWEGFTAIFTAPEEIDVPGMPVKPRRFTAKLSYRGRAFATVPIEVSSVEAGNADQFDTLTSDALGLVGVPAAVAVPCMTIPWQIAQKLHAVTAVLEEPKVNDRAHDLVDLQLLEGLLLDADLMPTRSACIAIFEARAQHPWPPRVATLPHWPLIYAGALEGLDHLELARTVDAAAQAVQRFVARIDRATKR

PcnA, sequence (L7N672 entry or part of it): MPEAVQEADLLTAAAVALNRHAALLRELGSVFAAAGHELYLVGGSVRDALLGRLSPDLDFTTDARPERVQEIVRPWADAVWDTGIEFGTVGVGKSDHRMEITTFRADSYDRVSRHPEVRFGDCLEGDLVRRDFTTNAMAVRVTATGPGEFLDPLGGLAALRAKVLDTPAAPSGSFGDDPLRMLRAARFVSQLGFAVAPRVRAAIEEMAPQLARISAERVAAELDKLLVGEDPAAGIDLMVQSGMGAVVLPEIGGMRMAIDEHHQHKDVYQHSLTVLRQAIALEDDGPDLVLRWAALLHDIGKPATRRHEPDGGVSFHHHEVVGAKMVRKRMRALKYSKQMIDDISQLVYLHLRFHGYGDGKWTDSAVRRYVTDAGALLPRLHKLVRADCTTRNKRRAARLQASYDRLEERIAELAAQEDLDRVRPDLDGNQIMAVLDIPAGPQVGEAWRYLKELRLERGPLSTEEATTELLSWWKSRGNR
T1 sequence (L7N686 1-197): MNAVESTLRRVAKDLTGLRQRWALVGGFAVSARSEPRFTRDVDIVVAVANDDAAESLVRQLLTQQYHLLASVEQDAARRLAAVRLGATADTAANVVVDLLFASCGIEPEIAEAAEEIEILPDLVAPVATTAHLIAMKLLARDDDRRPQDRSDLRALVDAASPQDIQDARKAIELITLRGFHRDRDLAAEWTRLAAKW

| Compound | pyrophosphorolysis of labelled tRNA, urea-PAGE autoradiography (PcnA) | transfer of alpha-32P nucleotide to tRNA, urea-PAGE autoradiography (MenT1) | transfer of alpha-32P nucleotide to tRNA, urea-PAGE autoradiography (MenT3) |
| --- | --- | --- | --- |
| O=P(O)(O)OP(=O)(O)O [inorganic pyrophosphate] | PcnA is indeed capable of generating truncated tRNA^Ser-4ΔA and ΔCA from MenT3-modified tRNA |  |  |
| Nc1ccn([C@@H]2O[C@H](COP(=O)(O)OP(=O)(O)OP(=O)(O)O)[C@@H](O)[C@H]2O)c(=O)n1 [CTP] |  | in the presence of α-32P labeled CTP for MenT1 and MenT3 | CTP is by far the preferred nucleotide substrate of MenT3 in vitro |
